We go through 35 substances from patent US20050060764A1, “Mouse model for bone metabolism” (priority 2003, published 2005).

Strand notation (5' to 3'): a small letter for the sugar, then the base; units joined by * are phosphorothioate-linked, units joined directly phosphodiester-linked; [ ] holds rarer units or linkages, { } end groups; capitals alone tell only the bases. e = 2'-O-(2-methoxyethyl) (MOE); [5mC] = 5-methylcytosine; d = 2'-deoxy (DNA)

The first data set concerns rat RANKL mRNA. Briefly: Antisense inhibition of rat RANKL mRNA levels in UMR-106 cells, quantitative real-time PCR (Table 3). It is filed as cell-based. The conditions noted are these: averages from three experiments. The arrangement: concentration or dose not given beside the values. The essentials: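 UMR-106 cells transfected with antisense oligonucleotides (5-methylcytidine throughout) in triplicate, harvested 16-24 h after treatment. RANKL mRNA quantified by real-time RT-PCR with a FAM/TAMRA probe, using rat GAPDH (JOE/TAMRA probe) as the reference.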
With “286621 (antisense eA*eA*eG*e[5mC]*e[5mC]*dA*dT*d[5mC]*dT*dT*dG*dG*dT*dT*dA*eA*e[5mC]*e[5mC]*e[5mC]*eT) [compound 286621]”, the “% INHIB (inhibition of rat RANKL mRNA levels)” value came to 33%. As for “gtggcacaggcccaggagtt (eG*eT*eG*eG*e[5mC]*dA*d[5mC]*dA*dG*dG*d[5mC]*d[5mC]*d[5mC]*dA*dG*eG*eA*eG*eT*eT; antisense) [ISIS 286650, 2′-MOE gapmer targeted to rat RANKL]”, the “% INHIB (inhibition of rat RANKL mRNA levels)” value was “at least 40%”. With “286589 (antisense eA*e[5mC]*eA*eG*eA*dG*d[5mC]*dG*dA*dT*dG*d[5mC]*dT*dG*d[5mC]*eA*eG*eA*e[5mC]*e[5mC]) [compound 286589]”, the “% INHIB (inhibition of rat RANKL mRNA levels)” value worked out at 49%. Regarding “286631 (antisense eA*eT*eG*e[5mC]*eT*dG*dG*dT*dT*dT*dT*dA*dA*d[5mC]*dG*eA*e[5mC]*eA*eT*eA) [compound 286631]”, the “% INHIB (inhibition of rat RANKL mRNA levels)” value was 35%. For the substance “tgtggccccacaatgtgttg (eT*eG*eT*eG*eG*d[5mC]*d[5mC]*d[5mC]*d[5mC]*dA*d[5mC]*dA*dA*dT*dG*eT*eG*eT*eT*eG; antisense) [ISIS 286607, 2′-MOE gapmer targeted to rat RANKL]”, the “% INHIB (inhibition of rat RANKL mRNA levels)” value is listed as “at least 40%”. Regarding “286610 (antisense eA*e[5mC]*eT*eT*eT*dA*dT*dG*dG*dG*dA*dA*d[5mC]*d[5mC]*d[5mC]*eG*eA*eT*eG*eG) [compound 286610]”, the “% INHIB (inhibition of rat RANKL mRNA levels)” value amounted to 34%.

On to “cttgggattttgatgctggt (e[5mC]*eT*eT*eG*eG*dG*dA*dT*dT*dT*dT*dG*dA*dT*dG*e[5mC]*eT*eG*eG*eT; antisense) [ISIS 286632, 2′-MOE gapmer targeted to rat RANKL]”, for which the “% INHIB (inhibition of rat RANKL mRNA levels)” value is “at least 40%”.

For “286614 (antisense eA*eT*e[5mC]*eT*eT*dG*dG*d[5mC]*d[5mC]*d[5mC]*dA*dG*d[5mC]*d[5mC]*dT*e[5mC]*eG*eA*eT*e[5mC]) [compound 286614]”, the “% INHIB (inhibition of rat RANKL mRNA levels)” value stood at 41%. As for “286638 (antisense eA*eG*eT*eA*e[5mC]*dG*dT*d[5mC]*dG*d[5mC]*dA*dT*d[5mC]*dT*dT*eG*eA*eT*e[5mC]*e[5mC]) [compound 286638]”, the “% INHIB (inhibition of rat RANKL mRNA levels)” value came to 26%. For “accatcagctgaagatagtc (eA*e[5mC]*e[5mC]*eA*eT*d[5mC]*dA*dG*d[5mC]*dT*dG*dA*dA*dG*dA*eT*eA*eG*eT*e[5mC]; antisense) [ISIS 286629, 2′-MOE gapmer targeted to rat RANKL]”, the “% INHIB (inhibition of rat RANKL mRNA levels)” value is listed as “at least 40%”. On the same count and under the same terms, to “286627 (antisense eG*e[5mC]*eA*eA*eA*dT*dG*dT*dT*dG*dG*d[5mC]*dG*dT*dA*e[5mC]*eA*eG*eG*eT) [compound 286627]” belongs 53%; to “286587 (antisense eG*e[5mC]*eG*e[5mC]*eA*dG*dG*dT*dA*d[5mC]*dT*dT*dG*d[5mC]*d[5mC]*eG*eT*eA*eG*eT) [compound 286587]”, 50%. In the case of “ggttaacccttagttttccg (eG*eG*eT*eT*eA*dA*d[5mC]*d[5mC]*d[5mC]*dT*dT*dA*dG*dT*dT*eT*eT*e[5mC]*e[5mC]*eG; antisense) [ISIS 286619, 2′-MOE gapmer targeted to rat RANKL]”, the “% INHIB (inhibition of rat RANKL mRNA levels)” value is “at least 40%”. Turning to “286640 (antisense eA*eA*eA*eG*e[5mC]*d[5mC]*d[5mC]*d[5mC]*dA*dA*dA*dG*dT*dA*d[5mC]*eG*eT*e[5mC]*eG*e[5mC]) [compound 286640]”, the “% INHIB (inhibition of rat RANKL mRNA levels)” value is 56%. On to “286655 (eG*eA*eA*eA*eA*d[5mC]*d[5mC]*dT*dT*dA*d[5mC]*dA*d[5mC]*d[5mC]*dT*eG*eA*eA*eA*eT; antisense) [compound 286655]”, for which the “% INHIB (inhibition of rat RANKL mRNA levels)” value worked out at 0%. On the same count and under the same terms, next, “286649 (antisense eT*eA*eG*eA*e[5mC]*d[5mC]*d[5mC]*dA*dG*dA*dG*dA*d[5mC]*dT*dA*eT*eG*eT*eA*eT) [compound 286649]”: 25%; “286626 (antisense eT*eG*eT*eT*eG*dG*d[5mC]*dG*dT*dA*d[5mC]*dA*dG*dG*dT*eA*eA*eT*eA*eG) [compound 286626]”: 41%; “286602 (antisense eA*eA*e[5mC]*e[5mC]*eT*dG*dT*dA*dT*dT*dT*dT*d[5mC]*dA*d[5mC]*eG*eG*eA*eG*eT) [compound 286602]”: 48%.

As to “286604 (antisense eT*e[5mC]*e[5mC]*eA*eG*dA*dG*dT*d[5mC]*dG*dA*dG*dT*d[5mC]*d[5mC]*eT*eG*e[5mC]*eA*eA) [compound 286604]”, the “% INHIB (inhibition of rat RANKL mRNA levels)” value was 68%. Take “286617 (antisense eA*eG*eT*eT*eT*dT*d[5mC]*d[5mC]*dG*dT*dT*dG*d[5mC]*dT*dT*eA*eA*e[5mC]*eG*eT) [compound 286617]”: the “% INHIB (inhibition of rat RANKL mRNA levels)” value came out at 52%. For “286611 (antisense eA*eG*eA*eG*eG*dA*d[5mC]*dA*dG*dA*d[5mC]*dT*dG*dA*d[5mC]*eT*eT*eT*eA*eT) [compound 286611]”, the “% INHIB (inhibition of rat RANKL mRNA levels)” value came out at 47%. With “286654 (eA*e[5mC]*eT*eT*eA*dT*dT*dT*dG*d[5mC]*dA*dG*dG*dT*dT*e[5mC]*e[5mC]*eA*eG*e[5mC]; antisense) [compound 286654]”, the “% INHIB (inhibition of rat RANKL mRNA levels)” value worked out at 55%. As to “tcagtctatgtcttgaactt (eT*e[5mC]*eA*eG*eT*d[5mC]*dT*dA*dT*dG*dT*d[5mC]*dT*dT*dG*eA*eA*e[5mC]*eT*eT; antisense) [ISIS 286642, 2′-MOE gapmer targeted to rat RANKL]”, the “% INHIB (inhibition of rat RANKL mRNA levels)” value was “at least 40%”.

Take “286624 (antisense e[5mC]*eA*eG*eG*eT*dA*dA*dT*dA*dG*dA*dA*dG*d[5mC]*d[5mC]*eA*eT*e[5mC]*eT*eT) [compound 286624]”: the “% INHIB (inhibition of rat RANKL mRNA levels)” value turned out to be 22%. For the substance “286612 (antisense eT*eG*eG*eT*eA*d[5mC]*d[5mC]*dA*dA*dG*dA*dG*dG*dA*d[5mC]*eA*eG*eA*e[5mC]*eT) [compound 286612]”, the “% INHIB (inhibition of rat RANKL mRNA levels)” value is 5%.

Take “286635 (antisense eT*eA*eA*eA*eA*dG*dT*dG*dG*dA*dA*dT*dT*d[5mC]*dA*eG*eA*eA*eT*eT) [compound 286635]”: the “% INHIB (inhibition of rat RANKL mRNA levels)” value came out at 11%. For the substance “286593 (antisense e[5mC]*eT*eG*e[5mC]*eG*d[5mC]*dT*d[5mC]*dG*dA*dA*dA*dG*dT*dA*e[5mC]*eA*eG*eG*eA) [compound 286593]”, the “% INHIB (inhibition of rat RANKL mRNA levels)” value is 49%. On to “286647 (antisense eG*eA*e[5mC]*e[5mC]*eT*dG*dT*dA*d[5mC]*dA*dG*dG*dG*dT*d[5mC]*eG*eA*eG*eA*eG) [compound 286647]”, for which the “% INHIB (inhibition of rat RANKL mRNA levels)” value is 53%. Still for that read-out and setting: next, “180806 (antisense eG*eG*e[5mC]*eA*eG*d[5mC]*dA*dT*dT*dG*dA*dT*dG*dG*dT*eG*eA*eG*eG*eT) [compound 180806]”: 9%; “286599 (antisense e[5mC]*eG*e[5mC]*eG*eT*dG*d[5mC]*dT*dG*dT*d[5mC]*dT*dT*d[5mC]*dT*eG*eA*eT*eA*eT) [compound 286599]”: 46%; “cttagtagtcttacacatgt (e[5mC]*eT*eT*eA*eG*dT*dA*dG*dT*d[5mC]*dT*dT*dA*d[5mC]*dA*e[5mC]*eA*eT*eG*eT; antisense) [ISIS 286645, 2′-MOE gapmer targeted to rat RANKL]”: “at least 40%”. Still for that read-out and setting: next, “ttttaacgacatataccatc (eT*eT*eT*eT*eA*dA*d[5mC]*dG*dA*d[5mC]*dA*dT*dA*dT*dA*e[5mC]*e[5mC]*eA*eT*e[5mC]; antisense) [ISIS 286630, 2′-MOE gapmer targeted to rat RANKL]”: “at least 40%”; “286606 (antisense eT*eG*eT*eA*eA*dT*dT*d[5mC]*d[5mC]*d[5mC]*dT*dT*dT*dG*d[5mC]*eA*e[5mC]*eG*eG*e[5mC]) [compound 286606]”: 37%; “ccattgtgtgatcaccatga (e[5mC]*e[5mC]*eA*eT*eT*dG*dT*dG*dT*dG*dA*dT*d[5mC]*dA*d[5mC]*e[5mC]*eA*eT*eG*eA; antisense) [ISIS 286648, 2′-MOE gapmer targeted to rat RANKL]”: “at least 40%”.

A further data set deals with mouse RANKL mRNA. Kind of data set: Antisense inhibition of mouse RANKL mRNA levels in C2C12 cells, quantitative real-time PCR (Table 2). In kind it is cell-based. Also on record: concentration or dose not given beside the values. The conditions noted are these: averages from three experiments. As to the method:
Cells were seeded into 24-well plates (Falcon-353047 at a density of ˜10,000 cells/cm^2 for use in antisense oligonucleotide transfection.
Cells are treated and data are obtained in triplicate. […] Cells were harvested 16-24 hours after oligonucleotide treatment.
PCR reagents were obtained from Invitrogen Corporation, (Carlsbad, Calif.).
Probes and primers to mouse RANKL were designed to hybridize to a mouse RANKL sequence, using published sequence information (GenBank accession number AF013170.1, incorporated herein as SEQ ID NO:ll). For mouse RANKL the PCR primers were: • forward primer: […] (SEQ ID NO:12) • reverse primer: […] (SEQ ID NO: 13) and • the PCR probe was: FAM-[…]-TAMRA (SEQ ID NO: 14) where FAM is the fluorescent reporter dye and TAMRA is the quencher dye. For mouse GAPDH the PCR primers were: • forward primer: […](SEQ ID NO:15) • reverse primer: […](SEQ ID NO:16) and the • PCR probe was: 5′ JOE-[…]-TAMRA 3′ (SEQ ID NO: 17) where JOE is the fluorescent reporter dye and TAMRA is the quencher dye.
In accordance with the present invention, a second series of antisense compounds was designed to target different regions of the mouse RANKL RNA, using published sequences (GenBank accession number AF013170.1, incorporated herein as SEQ ID NO: 11). […] All cytidine residues are 5-methylcytidines. […] If present “N.D.” indicates “no data”.
With “cagttccttctgcacggccc (antisense e[5mC]*eA*eG*eT*eT*d[5mC]*d[5mC]*dT*dT*d[5mC]*dT*dG*d[5mC]*dA*d[5mC]*eG*eG*e[5mC]*e[5mC]*e[5mC]) [ISIS 180804, 2′-MOE gapmer targeted to mouse RANKL]”, the “% INHIB (inhibition of mouse RANKL mRNA levels)” value is on record as “at least 40%”.
